These results are taken from US11292791B2 (priority 2017, dated 2022).

The target in this assay is BRD4 (Homo sapiens (Human), UniProt O60885). The conditions noted are these: read-out: BRD4 IC50 (μM gmean).
Broadly, the IC50 is the concentration needed to halve the response being measured. With `COC(=O)N1c2ccc3c(nc(CCn4cccn4)n3CC(=O)NCC#N)c2CC[C@@H]1C` [Example 366], the IC50 lay within 1 to 1000 µM. As for `COC(=O)N1c2ccc3c(nc(CCn4cccn4)n3CC(=O)NCc3ccno3)c2CC[C@@H]1C` [Example 367], the figure is 1 to 1000 µM; as for `COC(=O)N1c2ccc3c(nc(CCn4cccn4)n3CC(=O)N3CC[C@@H](NC(C)=O)C3)c2CC[C@@H]1C` [Example 370], 1 to 1000 µM; as for `COC(=O)N1c2ccc3c(nc(CCn4cccn4)n3CC(=O)NCc3ncnn3C)c2CC[C@@H]1C` [Example 371], 1 to 1000 µM. Under `COC(=O)N1c2ccc3c(nc(CCn4ccccc4=O)n3CC(=O)NCc3ncnn3C)c2CC[C@@H]1C` [Example 372] stands 1 to 1000 µM.

On to `COC(=O)N1c2ccc3c(nc(CCn4ccccc4=O)n3CC(=O)NCc3ccncn3)c2CC[C@@H]1C` [Example 373], for which the concentration for half-maximal inhibition (IC50) fell in the range of 1 to 1000 µM.

Regarding `COC(=O)N1c2ccc3c(nc(CCn4ccccc4=O)n3CC(=O)NCCc3ccccn3)c2CC[C@@H]1C` [Example 374], the IC50 was 1 to 1000 µM. `COC(=O)N1c2ccc3c(nc(CCn4ccccc4=O)n3CC(=O)NCc3cccnc3)c2CC[C@@H]1C` [Example 375]: the IC50 was in the range of 1 to 1000 µM. Consider `COC(=O)N1c2ccc3c(nc(CCn4ccccc4=O)n3CC(=O)NC[C@H]3CCCO3)c2CC[C@@H]1C` [Example 376], for which the IC50 lay in the range of 1 to 1000 µM. As for `COC(=O)N1c2ccc3c(nc(CCn4ccccc4=O)n3CC(=O)N[C@H]3CC[C@H](CO)CC3)c2CC[C@@H]1C` [Example 377], the figure is 1 to 1000 µM.

Consider `COC(=O)N1c2ccc3c(nc(CCn4ccccc4=O)n3CC(=O)N[C@H](C)CO)c2CC[C@@H]1C` [Example 378], for which the IC50 was in the range of 1 to 1000 µM. Under `COC(=O)N1c2ccc3c(nc(CCn4ccccc4=O)n3CC(=O)N(C)CCO)c2CC[C@@H]1C` [Example 379] stands 1 to 1000 µM; under `COC(=O)N1c2ccc3c(nc(CCn4ccccc4=O)n3CC(=O)N(C)CC(=O)N(C)C)c2CC[C@@H]1C` [Example 380], 1 to 1000 µM. As for `COC(=O)N1c2ccc3c(nc(CCn4ccccc4=O)n3CC(=O)N3CCC(O)CC3)c2CC[C@@H]1C` [Example 381], the figure is 1 to 1000 µM. In the case of `COC(=O)N1c2ccc3c(nc(CCn4ccccc4=O)n3CC(=O)NCC(=O)N(C)C)c2CC[C@@H]1C` [Example 382], the IC50 lay within 1 to 1000 µM.

Regarding `COC(=O)N1c2ccc3c(nc(CCn4ccccc4=O)n3CC(=O)NCC(=O)N3CCCC3)c2CC[C@@H]1C` [Example 383], the IC50 was in the range of 1 to 1000 µM. Under `COC(=O)N1c2ccc3c(nc(CCn4ccccc4=O)n3CC(=O)N(C)C3CCOCC3)c2CC[C@@H]1C` [Example 384] stands 1 to 1000 µM. Under `COC(=O)N1c2ccc3c(nc(CCn4ccccc4=O)n3CC(=O)NCC3CCOCC3)c2CC[C@@H]1C` [Example 385] stands 1 to 1000 µM; under `COC(=O)N1c2ccc3c(nc(CCn4ccccc4=O)n3CC(=O)NC3CCOCC3)c2CC[C@@H]1C` [Example 386], 1 to 1000 µM; under `COC(=O)N1c2ccc3c(nc(CCn4ccccc4=O)n3CC(=O)N(C)[C@H]3CCOC3)c2CC[C@@H]1C` [Example 387], 1 to 1000 µM. Under `COC(=O)N1c2ccc3c(nc(CCn4ccccc4=O)n3CC(=O)N3CC[C@H](C(N)=O)C3)c2CC[C@@H]1C` [Example 388] stands 1 to 1000 µM. For the compound `COC(=O)N1c2ccc3c(nc(CCn4ccccc4=O)n3CC(=O)N(C)CC(C)(C)O)c2CC[C@@H]1C` [Example 389], the IC50 was 1 to 1000 µM. In the case of `COC(=O)N1c2ccc3c(nc(CCn4ccccc4=O)n3CC(=O)NCC3(O)CCC3)c2CC[C@@H]1C` [Example 390], the IC50 fell in the range of 1 to 1000 µM. Regarding `COC(=O)N1c2ccc3c(nc(CCn4ccccc4=O)n3CC(=O)NCc3cc(C)no3)c2CC[C@@H]1C` [Example 391], the half-maximal inhibitory concentration (IC50) is 1 to 1000 µM. On to `COC(=O)N1c2ccc3c(nc(CCn4ccccc4=O)n3CC(=O)NCC3(C)COC3)c2CC[C@@H]1C` [Example 392], for which the half-inhibitory concentration (IC50) was 1 to 1000 µM. Under `COC(=O)N1c2ccc3c(nc(CCn4ccccc4=O)n3CC(=O)NC3COC3)c2CC[C@@H]1C` [Example 393] stands 1 to 1000 µM; under `COC(=O)N1c2ccc3c(nc(CCn4ccccc4=O)n3CC(=O)NCC#N)c2CC[C@@H]1C` [Example 394], 1 to 1000 µM; under `COC(=O)N1c2ccc3c(nc(CCn4ccccc4=O)n3CC(=O)NCCN3CCNC3=O)c2CC[C@@H]1C` [Example 395], 1 to 1000 µM. As for `COC(=O)N1c2ccc3c(nc(CCn4ccccc4=O)n3CC(=O)N3CCC(C#N)CC3)c2CC[C@@H]1C` [Example 396], the figure is 1 to 1000 µM; as for `COC(=O)N1c2ccc3c(nc(CCn4ccccc4=O)n3CC(=O)N3CC[C@@H](NC(C)=O)C3)c2CC[C@@H]1C` [Example 397], 1 to 1000 µM; as for `COC(=O)N1c2ccc3c(nc(CCn4ccccc4=O)n3CC(=O)N3CC[C@H](NC(C)=O)C3)c2CC[C@@H]1C` [Example 398], 1 to 1000 µM. Under `COC(=O)N1c2ccc3c(nc(CCn4ccccc4=O)n3CC(=O)N3CC[C@H](O)C3)c2CC[C@@H]1C` [Example 399] stands 1 to 1000 µM; under `COC(=O)N1c2ccc3c(nc(CCn4ccccc4=O)n3CC(=O)N3CCNC(=O)C3)c2CC[C@@H]1C` [Example 400], 1 to 1000 µM; under `COC(=O)N1c2ccc3c(nc(CCn4ccccc4=O)n3CC(=O)N3CCC(F)(F)C3)c2CC[C@@H]1C` [Example 401], 1 to 1000 µM. `COC(=O)N1c2ccc3c(nc(CCn4ccccc4=O)n3CC(=O)N3CCn4ccnc4C3)c2CC[C@@H]1C` [Example 402]: the IC50 lay within 1 to 1000 µM. As for `COC(=O)N1c2ccc3c(nc(CCn4ccccc4=O)n3CC(=O)Nc3ccn[nH]3)c2CC[C@@H]1C` [Example 403], the figure is 1 to 1000 µM; as for `COC(=O)N1c2ccc3c(nc(CC(C(=O)O)c4ccccc4)n3C3CCCC(OC)C3)c2CC[C@@H]1C` (stereo partly shown) [Example 404], 1 to 1000 µM; as for `COC(=O)N1c2ccc3c(nc(C(C)Cc4ccc(F)c(F)c4)n3C3CCCC(C(=O)O)C3)c2CC[C@@H]1C` (stereo partly shown) [Example 405], 1 to 1000 µM. As to `COC(=O)N1c2ccc3c(nc(CC(C(=O)O)c4ccc(C)c(F)c4)n3C3CCCOC3)c2CC[C@@H]1C` (stereo partly shown) [Example 407], the IC50 was 1 to 1000 µM.

In the case of `COC(=O)N1c2ccc3c(nc(C(O)c4ccc(F)c(F)c4)n3C3CCCC(C(=O)O)C3)c2CC[C@@H]1C` (stereo partly shown) [Example 432], the IC50 is 1 to 1000 µM.

For the compound `COC(=O)N1c2ccc3c(nc(C(C)Cn4cc(Cl)cn4)n3C3CCCC(C(=O)O)C3)c2CC[C@@H]1C` (stereo partly shown) [Example 443], the concentration for half-maximal inhibition (IC50) was in the range of 1 to 1000 µM. Under `COC(=O)N1c2ccc3c(nc(CC(C(=O)O)c4ccc(C)c(F)c4)n3C3CCCOC3)c2CC[C@@H]1C` (stereo partly shown) [Example 446] stands 1 to 1000 µM; under `COC(=O)N1c2ccc3c(nc(CC(C(=O)O)c4ccc(F)c(F)c4)n3C3CCCC3)c2CC[C@@H]1C` (stereo partly shown) [Example 447], 1 to 1000 µM. As for `COC(=O)N1c2ccc3c(nc(C(O)c4cc(F)ccc4F)n3C3CCCC(C(=O)O)C3)c2CC[C@@H]1C` (stereo partly shown) [Example 449], the half-maximal inhibitory concentration (IC50) was 1 to 1000 µM. As for `COC(=O)N1c2ccc3c(nc(CC(C(=O)O)c4ccccc4)n3C3CCCC(OC)C3)c2CC[C@@H]1C` (stereo partly shown) [Example 455], the figure is 1 to 1000 µM; as for `COC(=O)N1c2ccc3c(nc(C(C)Cn4ccc(Cl)n4)n3C3CCCC(C(=O)O)C3)c2CC[C@@H]1C` (stereo partly shown) [Example 459], 1 to 1000 µM; as for `COC(=O)N1c2ccc3c(nc(C(c4ccc(OC)c(F)c4)C(C)C)n3C3CCC(C(=O)O)CC3)c2CC[C@@H]1C` (stereo partly shown) [Example 466], 1 to 1000 µM. As for `COC(=O)N1c2ccc3c(nc(CC(C(=O)O)c4ccc5ccccc5c4)n3C3CCCOC3)c2CC[C@@H]1C` (stereo partly shown) [Example 468], the figure is 1 to 1000 µM. Under `COC(=O)N1c2ccc3c(nc(Cc4ccc(C)c(F)c4)n3[C@@H]3CCC[C@@H](C(=O)O)C3)c2CC[C@@H]1C` [Example 471] stands 1 to 1000 µM.

On to `COC(=O)N1c2ccc3c(nc(CC(C(=O)O)c4ccccc4)n3C3CCCC(OC)C3)c2CC[C@@H]1C` (stereo partly shown) [Example 475], for which the concentration for half-maximal inhibition (IC50) is 1 to 1000 µM. As for `COC(=O)N1c2ccc3c(nc(Cc4ccc(OC)c(F)c4)n3[C@@H]3CCC[C@@H](C(=O)O)C3)c2CC[C@@H]1C` [Example 481], the figure is 1 to 1000 µM.

As for `COC(=O)N1c2ccc3c(nc(C(C)Cn4ccc(C)n4)n3C3CCCC(C(=O)O)C3)c2CC[C@@H]1C` (stereo partly shown) [Example 485], the IC50 is 1 to 1000 µM. As for `COC(=O)N1c2ccc3c(nc(CC(C(=O)O)c4cccc(F)c4)n3C3CCCOC3)c2CC[C@@H]1C` (stereo partly shown) [Example 490], the figure is 1 to 1000 µM; as for `COC(=O)N1c2ccc3c(nc(C(C)Cn4cc(C(F)F)cn4)n3C3CCCC(C(=O)O)C3)c2CC[C@@H]1C` (stereo partly shown) [Example 492], 1 to 1000 µM; as for `COC(=O)N1c2ccc3c(nc(CC(C(=O)O)c4ccc(Cl)cc4)n3C3CCCOC3)c2CC[C@@H]1C` (stereo partly shown) [Example 495], 1 to 1000 µM.

Turning to `COC(=O)N1c2ccc3c(nc(CC(C(=O)O)c4ccc(C)cc4)n3C3CCCOC3)c2CC[C@@H]1C` (stereo partly shown) [Example 497], the IC50 fell in the range of 1 to 1000 µM.

Turning to `COC(=O)N1c2ccc3c(nc(Cc4ccc(F)c(F)c4)n3[C@@H]3CCC[C@@H](C(=O)O)C3)c2CC[C@@H]1C` [Example 502], the concentration for half-maximal inhibition (IC50) lay in the range of 1 to 1000 µM. As for `COC(=O)N1c2ccc3c(nc(C(C)Cn4cc(C(F)F)cn4)n3C3CCC(C(=O)O)CC3)c2CC[C@@H]1C` (stereo partly shown) [Example 504], the figure is 1 to 1000 µM; as for `COC(=O)N1c2ccc3c(nc(C(CO)c4ccccc4)n3C3CCCC(C(=O)O)C3)c2CC[C@@H]1C` (stereo partly shown) [Example 505], 1 to 1000 µM; as for `COC(=O)N1c2ccc3c(nc(Cc4ccc(OC)c(Cl)c4)n3[C@H]3CC[C@H](C(=O)O)CC3)c2CC[C@@H]1C` [Example 508], 1 to 1000 µM.

As for `COC(=O)N1c2ccc3c(nc(CCc4ccc(F)c(F)c4)n3[C@@H]3CCC[C@@H](C(=O)O)C3)c2CC[C@@H]1C` [Example 509], the IC50 lay within 1 to 1000 µM. Under `COC(=O)N1c2ccc3c(nc(CC(C(=O)O)c4ccc(F)cc4)n3C3CCCOC3)c2CC[C@@H]1C` (stereo partly shown) [Example 510] stands 1 to 1000 µM; under `COC(=O)N1c2ccc3c(nc(Cc4cc(Cl)cc(OC)c4)n3[C@@H]3CCC[C@@H](C(=O)O)C3)c2CC[C@@H]1C` [Example 512], 1 to 1000 µM. As for `COC(=O)N1c2ccc3c(nc(CCC4CCCC4)n3C3CCCC(C(=O)O)C3)c2CC[C@@H]1C` (stereo partly shown) [Example 514], the figure is 1 to 1000 µM.
